According to the NIST ThermoML archive (doi:10.1016/j.fluid.2016.11.031):
± gives the expanded uncertainty stated by the source.

Assay: molar heat capacity at constant pressure
Conditions: Liquid, Flow calorimetry

C1C[C@@H]2[C@H]3CC[C@H](C3)[C@@H]2C1 [exo-tetrahydrodicyclopentadiene]
Conditions | molar heat capacity at constant pressure [J/K/mol]
323.34 K, 100 kPa | 219.49 ± 2.2
323.34 K, 4000 kPa | 218.3 ± 2.2
323.34 K, 5020 kPa | 218.14 ± 2.2
323.35 K, 3070 kPa | 218.8 ± 2.2
323.35 K, 6080 kPa | 217.34 ± 2.2
323.37 K, 1030 kPa | 219.39 ± 2.2
323.37 K, 2050 kPa | 218.99 ± 2.2
333.16 K, 3990 kPa | 223.29 ± 2.3
333.17 K, 5040 kPa | 223.42 ± 2.3
333.17 K, 5990 kPa | 223.32 ± 2.3
333.2 K, 100 kPa | 224.4 ± 2.3
333.2 K, 1070 kPa | 224.39 ± 2.3
333.2 K, 3000 kPa | 223.84 ± 2.3
333.21 K, 2020 kPa | 224.41 ± 2.3
343.01 K, 100 kPa | 230.29 ± 2.3
343.03 K, 1090 kPa | 230.02 ± 2.3
343.06 K, 2070 kPa | 229.6 ± 2.3
343.06 K, 3060 kPa | 229 ± 2.3
343.09 K, 4000 kPa | 229.5 ± 2.3
343.09 K, 5030 kPa | 228.72 ± 2.3
343.09 K, 6000 kPa | 229.08 ± 2.3
353.59 K, 100 kPa | 234.98 ± 2.4
353.59 K, 4080 kPa | 234.11 ± 2.4
353.59 K, 5070 kPa | 234.17 ± 2.4
353.6 K, 6090 kPa | 233.83 ± 2.4
353.61 K, 1080 kPa | 234.61 ± 2.4
353.61 K, 2010 kPa | 234.35 ± 2.4
353.62 K, 3070 kPa | 234.12 ± 2.4
363.48 K, 100 kPa | 240.37 ± 2.4
363.53 K, 1070 kPa | 240.28 ± 2.4
363.53 K, 2030 kPa | 240.09 ± 2.4
363.53 K, 2990 kPa | 239.97 ± 2.4
363.54 K, 4080 kPa | 239.88 ± 2.4
363.54 K, 5000 kPa | 239.76 ± 2.4
363.55 K, 6020 kPa | 239.67 ± 2.4
383.58 K, 3060 kPa | 248.68 ± 2.5
383.58 K, 4010 kPa | 248.49 ± 2.5
383.59 K, 5070 kPa | 248.39 ± 2.5
383.6 K, 100 kPa | 249.31 ± 2.5
383.6 K, 1000 kPa | 248.82 ± 2.5
383.6 K, 5990 kPa | 248.35 ± 2.5
383.61 K, 2020 kPa | 248.8 ± 2.5
403.36 K, 100 kPa | 260.34 ± 2.6
403.36 K, 1020 kPa | 259.74 ± 2.6
403.37 K, 2060 kPa | 259.23 ± 2.6
403.38 K, 3040 kPa | 258.89 ± 2.6
403.38 K, 4010 kPa | 257.41 ± 2.6
403.39 K, 5000 kPa | 256.93 ± 2.6
403.4 K, 6070 kPa | 256.62 ± 2.6
423.2 K, 1020 kPa | 271.44 ± 2.7
423.2 K, 2050 kPa | 270.28 ± 2.7
423.2 K, 3010 kPa | 268.73 ± 2.7
423.21 K, 100 kPa | 271.95 ± 2.8
423.25 K, 4020 kPa | 267.73 ± 2.7
423.26 K, 4980 kPa | 267.54 ± 2.7
423.27 K, 6000 kPa | 266.96 ± 2.7
443.11 K, 3110 kPa | 282.78 ± 2.9
443.13 K, 2050 kPa | 283.43 ± 2.9
443.14 K, 1030 kPa | 284.05 ± 2.9
443.15 K, 240 kPa | 284.8 ± 2.9
443.17 K, 4060 kPa | 282.05 ± 2.9
443.18 K, 6050 kPa | 280.75 ± 2.8
443.19 K, 5030 kPa | 281.38 ± 2.8
463.16 K, 2040 kPa | 298.88 ± 3
463.17 K, 230 kPa | 301.77 ± 3
463.18 K, 1060 kPa | 300.31 ± 3
463.19 K, 4070 kPa | 297.53 ± 3
463.2 K, 3000 kPa | 299.41 ± 3
463.21 K, 5010 kPa | 297.44 ± 3
463.22 K, 6020 kPa | 296.56 ± 3
483.31 K, 2050 kPa | 316.76 ± 3.2
483.32 K, 3040 kPa | 315.54 ± 3.2
483.37 K, 4030 kPa | 315.19 ± 3.2
483.37 K, 6060 kPa | 314.11 ± 3.2
483.38 K, 5080 kPa | 314.31 ± 3.2
483.39 K, 1020 kPa | 319.24 ± 3.2
483.42 K, 470 kPa | 321.27 ± 3.2
503.28 K, 1020 kPa | 336.59 ± 3.4
503.28 K, 2040 kPa | 334.35 ± 3.4
503.28 K, 3050 kPa | 333.03 ± 3.4
503.29 K, 4090 kPa | 330.6 ± 3.3
503.29 K, 5070 kPa | 331.61 ± 3.4
503.3 K, 480 kPa | 338.7 ± 3.4
503.3 K, 6000 kPa | 331.5 ± 3.4
523.44 K, 3010 kPa | 348.07 ± 3.5
523.45 K, 1030 kPa | 352.98 ± 3.6
523.45 K, 2060 kPa | 350.7 ± 3.5
523.47 K, 500 kPa | 355.43 ± 3.6
523.49 K, 5040 kPa | 345.42 ± 3.5
523.49 K, 6180 kPa | 344.08 ± 3.5
523.5 K, 4000 kPa | 346.42 ± 3.5
